Experiments:
[1] = system: cleaved caspase-3, caspase-8, cleaved caspase-9, and PARP; assay: Western blot for caspase and PARP cleavage; type: cell-based, human; conditions: 30 μM, 48 hours, cell lines, hTERT-HMEC and PE cells
Method: Cells were lysed in cold radioimmunoprecipitation assay buffer (50 mM Tris HCl, 150 mM NaCl, 0.1% sodium dodecyl sulfate (SDS), 0.5% sodium deoxycholate, 1% Triton X-100, pH = 8.0) supplemented with protease inhibitor cocktail (Sigma), phosphatase inhibitor cocktail 2 (Sigma) and 1 mM dithiothreitol (DTT) (Sigma). The lysate was sonicated for 30 seconds using a 450 Sonifier (Branson Ultrasonics, Danbury, CT, USA) and was centrifuged at 14,000 RPM for five minutes at 4°C. The protein concentration was determined using the BCA protein assay kit (Peirce, Rockford, IL, USA) and the samples were boiled for five minutes with 4× SDS Laemmli buffer. Equal amounts of protein were resolved on SDS polyacrylamide gels and transferred to an Immobilon-FL PVDF membrane (EMD Millipore). Blots were blocked in Odyssey Blocking Buffer (LI-COR, Lincoln, NE, USA) for one hour at room temperature, stained with primary antibodies overnight at 4°C, washed, and stained with IR800CW or IR680 anti-mouse or rabbit secondary antibodies (LI-COR) for one hour at room temperature. Blots were imaged with the Odyssey Infrared Imaging System (LI-COR). […]

[2] = system: hTERT-HMEC cells; assay: Live/dead assay, monolayer; type: cell-based, human; conditions: 20 μM, five days
Method: The hTERT-HMEC and PE1007070 cells were seeded in black wall clear bottom 96-well plates (Greiner Bio-one, Monroe, NC, USA) in 100 μL of modified M87 media at varying densities to achieve 80% to 90% confluency at the end of the assay. After 24 hours, the media were aspirated and the cells were treated with 20 μM C-6 or the corresponding 0.02% (v/v) DMSO vehicle control. After culturing for five days, the viability and cytotoxicity was determined with the Live/dead assay (Life Technologies) according to the manufacturer's instructions. Briefly, the media were aspirated and the cells were treated with 4 μM Calcein-AM and 8 μM Ethidium homodimer-1 diluted in (D)MEM/F12 for 30 minutes at 37°C. Subsequent imaging was performed with an IX81 microscope (Olympus, Center Valley, PA, USA) running Slide Book 5.0 software (Intelligent Imaging Innovations, Denver, CO, USA).

[3] = system: LC3A/B-II; assay: Western blot for LC3A/B-II (autophagy); type: cell-based, human; conditions: T47D cells, 30 μM, 48 hours
Method: Cells were lysed in cold radioimmunoprecipitation assay buffer (50 mM Tris HCl, 150 mM NaCl, 0.1% sodium dodecyl sulfate (SDS), 0.5% sodium deoxycholate, 1% Triton X-100, pH = 8.0) supplemented with protease inhibitor cocktail (Sigma), phosphatase inhibitor cocktail 2 (Sigma) and 1 mM dithiothreitol (DTT) (Sigma). The lysate was sonicated for 30 seconds using a 450 Sonifier (Branson Ultrasonics, Danbury, CT, USA) and was centrifuged at 14,000 RPM for five minutes at 4°C. The protein concentration was determined using the BCA protein assay kit (Peirce, Rockford, IL, USA) and the samples were boiled for five minutes with 4× SDS Laemmli buffer. Equal amounts of protein were resolved on SDS polyacrylamide gels and transferred to an Immobilon-FL PVDF membrane (EMD Millipore). Blots were blocked in Odyssey Blocking Buffer (LI-COR, Lincoln, NE, USA) for one hour at room temperature, stained with primary antibodies overnight at 4°C, washed, and stained with IR800CW or IR680 anti-mouse or rabbit secondary antibodies (LI-COR) for one hour at room temperature. Blots were imaged with the Odyssey Infrared Imaging System (LI-COR).

[4] = system: MCF-10A cells; assay: BrdU proliferation and cell cycle analysis; type: cell-based, human; conditions: 15 μM, 24 or 48 hours vs DMSO
Method: (§1) Cells were seeded in six-well plates (BD Falcon) in their respective media at different densities to attain 70% to 80% confluency at the end of the assay. In order to compare the proliferation rate of established cell lines compared to patient-derived cells, 10 μM of 5-bromo-2-deoxyuridine (BrdU) (Sigma) was added to the culture media for 30 minutes or 6 hours in triplicate. To determine the impact of C-6 on the cell cycle, cells were treated with 15 μM C-6 or 0.02% (v/v) DMSO vehicle in the corresponding media containing 2% FBS for 24 and 48 hours in triplicate followed by treatment with 10 μM BrdU for 30 minutes. Immediately following BrdU treatment, floating cells were collected and adherent cells were trypsinized. Floating and adherent cells were combined, washed with HBSS containing 2% FBS, fixed with 70% ethanol and stored overnight at -20°C. Cells were then treated with 2 M HCl containing 0.5% Triton X-100 (EMD Millipore) for 30 minutes at room temperature and were washed with 0.1 M sodium tetraborate (Sigma) at pH = 8.5. Next, cells were blocked with staining buffer, which consisted of 1% BSA, 0.5% Tween-20 (Fisher Scientific) in PBS, for five minutes and were stained with a mouse monoclonal BrdU antibody (Developmental Studies Hybridoma Bank, Iowa City, IA, USA) for one hour on ice. Cells were subsequently washed and stained with anti-mouse Alexa Fluor® 488 (Life Technologies) for 30 minutes on ice, washed, stained with 5 μg/mL of propidium iodide (EMD Millipore) and passed through a 70-μm cell strainer. Cell suspensions were analyzed using a FACScan flow cytometer and the resulting data were analyzed with Flow Jo software. The average ± SD of three wells for each condition was calculated.

[5] = system: MDA-MB-231 cells; assay: BrdU proliferation and cell cycle analysis; type: cell-based, human; conditions: MDA-MB-231, 15 μM, 24 or 48 hours vs DMSO
Method: as §1

[6] = system: T47D cells; assay: BrdU proliferation and cell cycle analysis; type: cell-based, human; conditions: 15 μM, 24 or 48 hours vs DMSO
Method: as §1

[7] = system: MCF-7 cells; assay: BrdU proliferation and cell cycle analysis; type: cell-based, human; conditions: MCF-7, 15 μM, 24 or 48 hours vs DMSO
Method: as §1

[8] = Solubility (stated property); type: physicochemical
[9] = Dose response assay, ATPlite viability, four days; type: cell-based; conditions: human, MCF-10A cells, 200 μM C-6, read-out: cells still viable
Method: Cells were seeded in white 96-well plates (Costar, Tewksbury, MA, USA) in 100 μL of their respective media at varying densities to achieve 80% to 90% confluency after five days in culture. The compounds dissolved in DMSO were diluted in their corresponding media containing 2% FBS and an EP Motion 5075 (Eppendorf North America, Hauppauge, NY, USA) liquid handler was utilized to perform a serial dilution. […] After the cells were cultured for 24 hours, the media were aspirated and the cells were treated with the compounds and vehicle controls in triplicate. After four days of treatment, viability was determined utilizing the ATPlite 1step assay system (Perkin Elmer, Waltham, MA, USA) according to the manufacturer's instructions. Luminescence measurements were acquired utilizing a Perkin Elmer 2104 EnVision plate reader. Raw luminescence values were normalized to the DMSO vehicle control wells.

## COc1cc(OC)cc(C(C)c2ccc(NC(=O)OC(C)(C)C)cc2)c1 (stereo not drawn) [C-6]
[1]
  cleavage of caspase-3, -8, -9, or PARP: did not induce cleavage
[2]
  morphology and dead (ethidium positive) cells: did not induce a gross morphological phenotype in the hTERT-HMECs or a significant increase in dead (ethidium bromide positive) cells
[3]
  LC3A/B-II levels: small increase
[4]
  cell cycle profile: did not show a statistically significant difference
[5]
  percentage of cells in G1/G0: increased
[6]
  percentage of cells in G1/G0: increased
[7]
  percentage of cells in G1/G0: increased
[8]
  solubility: poor solubility
[9]
  viability at 4 days, 200 μM: > 70%
